Experimental data published in patent US10039776B2, “Hepato-protective beverage composition” (priority 2013, dated 2018).

Assays:
[1] = test system: superoxide dismutase (SOD); conditions: erythritol-added group; cited from earlier work
[2] = test system: Male Wistar albino rats, alcohol induced sub-acute hepatotoxicity; assay: Alcohol induced sub-acute hepatotoxicity in rats: evaluation of hepato-protective activity (% protection, % synergism); assay type: in vivo
Text: • 1. Hepato-protection: the ability to reduce stress and prevent damage to the liver. • 2. Synergistic hepato-protective effect: where the net hepato-protective effect of a combination is greater than the sum of the hepato-protective effects of the parts. • 3. Primary hepato-protective agent; 18α-Glycyrrhizin, 18β-Glycyrrhizin, or a combination thereof. • 4. Complimentary hepato-protective agent: sugar, sugar alcohol, or a combination thereof. • 5. Effective amount: the amount of each hepato-protective agent that must be included in a beverage to result in a net hepato-protective synergistic effect. Effective amounts include: • a. For 18α-Glycyrrhizin, a mass concentration range of 0.04% to 1.0%. • b. For 18β-Glycyrrhizin, a mass concentration range of 0.04% to 1.0%. • c. For sugar, a mass concentration range of 0.5% to 3.5%. • d. For sugar alcohol, a mass concentration range of 0.5% to 3.5%. • 6. Effective proportion: the proportional amount of how many units of complimentary hepato-protective agent should be added per unit of primary hepato-protective agent to result in a hepato-protective synergistic effect. An effective proportion is in the range of 1:2 to 175:2 (units of complimentary hepato-protective agent to units of primary hepato-protective agent). […] All animal experiments were conducted for a period of one month by per oral administration of 2.5 g/kg dose of alcohol.
The following tables 10 and 11 further illustrate hepatoprotective activity of the supplied alcoholic formulations in comparison with standard alcoholic drink in rat model, when fed orally for 4 weeks and also illustrate any synergistic effect of the ingredients. Hepatoprotection (HP) Calculation % Protection=1−[(T-NS)/(AL-NS)]×100 T=Mean value of drug treated, NS=Mean value of normal control, AL=Mean value of alcohol alone
Distilled ethanol was obtained from Bengal Chemicals, West Bengal, India, Biochemical kits like AST, ALT, ALKP and total protein were obtained from Span Diagnostics Ltd. Surat, India. Time course study of oxidative and nitrosative stress and antioxidant enzymes in K2Cr2O7-induced nephrotoxicity. BMC Nephrol., 6:4], TNF-α was estimated by standard procedures as mentioned in Rat TNF-α ELIS A kit (BioLegend, Inc. San Diego, Calif. USA).
Male Wistar albino rats weighing 150-200 g are procured from local registered traders (CPCSEA Regd No. 1443/po/6/4/CPCSEA), Kolkata, India, and were acclimatized for 7 days at standard housing condition (26° C.±2° C., 60-70% RFT with 12±1 hours light and dark cycle). Animals were fed with commercially available diet (Upton India Pvt. Ltd, India) and water ad-libitum during the experiment period.
Male Wistar albino rats weighing 150-200 g are procured and randomly divided into groups consisting of six animals in each group. Sub-acute toxicity is induced by alcohol in rats by oral administration of 25% alcohol (2.5 gm/kg/day, p.o.) for 28 days and this group served as the negative control and the positive control group received distilled water only.
All drug solutions were prepared in 15-40% aqueous alcohol, adjusting the pH in the range of 4.0-9.0 for evaluation of hepato-protective activity. This solution is further diluted with distilled water to obtain 25% aqueous alcoholic solution and administered orally by gavage to different rats group of step (a).
On day 28th day the animals are anaesthetized with ether and blood samples are collected by cardiac puncture and the serum is used for the assay of marker enzymes serum alanine aminotransferase (ALT), aspartate aminotransferase (AS′T), alkaline phosphatase (ALP). The rats are sacrificed by exposure to an overdose of ether, immediately after the collection of blood; their livers are removed, washed in cold saline. Part of the liver is used for preparation of liver homogenate in phosphate buffer (pH 7.4). […]

[3] = cited from earlier work
[4] = sugar alcohol or sugar alone at 1%, alcohol 2.5 g/kg p.o. one month
[5] = sugar alcohol or sugar alone at 2.5%, alcohol 2.5 g/kg p.o. one month

Row | Compound | ALT etc % Prot. [2, 4] [%] | GSH % Prot. [2, 4] [%] | MDA % Prot. [2, 4] [%] | SOD etc % Prot. [2, 4] [%] | TNF-α % Prot. [2, 4] [%] | ALT etc % Prot. [2, 5] [%] | GSH % Prot. [2, 5] [%] | MDA % Prot. [2, 5] [%] | SOD etc % Prot. [2, 5] [%] | TNF-α % Prot. [2, 5] [%] | also measured
1 | OC[C@@H](O)[C@@H](O)CO [erythritol] |  |  |  |  |  |  |  |  |  |  | increase of SOD activity [1]: 2-5 times
2 | OC[C@@H](O)[C@@H](O)[C@H](O)[C@H](O)CO [Sample Code A, D-Mannitol] |  |  |  |  |  |  |  |  |  |  | TNF-α % Prot. ([2]; alcohol 2.5 g/kg/day p.o. 28 days, composition fixed by sample/example, listed as Example 2): 7.19%; GSH % Prot. ([2]; alcohol 2.5 g/kg/day p.o. 28 days, liver homogenate, composition fixed by sample/example, listed as Example 2): 10.35%; MDA % Prot. ([2]; hepatic MDA, alcohol 2.5 g/kg/day p.o. 28 days, composition fixed by sample/example, listed as Example 2): 19.17%; SOD etc % Prot. ([2]; mean of SOD, CAT and GPx, alcohol 2.5 g/kg/day p.o. 28 days, composition fixed by sample/example, listed as Example 2): 12.71%; ALT etc % Prot. ([2]; mean of serum ALT, AST and ALKP, alcohol 2.5 g/kg/day p.o. 28 days, composition fixed by sample/example, listed as Example 2): 12.26%
3 | OC[C@@H](O)[C@H](O)[C@@H](O)CO [Xyl, D-Xylitol] | 17.62 | 19.76 | 26.9 | 18.91 | 15.77 | 26.72 | 35.57 | 45.38 | 36.88 | 30.05 | 
4 | CCO [ethanol] |  |  |  |  |  |  |  |  |  |  | time to peak blood alcohol concentration ([3]; fasting state): ≤ 30 min; ingested alcohol degraded to acetaldehyde ([3]; human being): 95%; ingested alcohol excreted unchanged ([3]; human being): 5%; share of alcohol metabolism accounted for by liver ([3]; in vivo): ~90%; alcohol metabolized per hour ([3]; typical adult, printed 'g of alcohol, hour'): 7 to 10 g
5 | OC[C@@H](O)[C@@H](O)CO [Ery, D-Erythritol] | 17.84 | 18.71 | 24.71 | 17.94 | 16.57 | 32.13 | 37.29 | 48.61 | 36.29 | 35.96 | 
6 | 18β-Glycyrrhizin [Sample Code D] |  |  |  |  |  |  |  |  |  |  | TNF-α % Prot. ([2]; alcohol 2.5 g/kg/day p.o. 28 days, composition fixed by sample/example, listed as Example 4): 7.64%; GSH % Prot. ([2]; alcohol 2.5 g/kg/day p.o. 28 days, liver homogenate, composition fixed by sample/example, listed as Example 4): 3.29%; MDA % Prot. ([2]; hepatic MDA, alcohol 2.5 g/kg/day p.o. 28 days, composition fixed by sample/example, listed as Example 4): 15.97%; SOD etc % Prot. ([2]; mean of SOD, CAT and GPx, alcohol 2.5 g/kg/day p.o. 28 days, composition fixed by sample/example, listed as Example 4): 11.45%; ALT etc % Prot. ([2]; mean of serum ALT, AST and ALKP, alcohol 2.5 g/kg/day p.o. 28 days, composition fixed by sample/example, listed as Example 4): 8.38%
7 | OC[C@@H](O)[C@@H](O)[C@H](O)[C@H](O)CO [Sample Code C, D-Mannitol] |  |  |  |  |  |  |  |  |  |  | TNF-α % Prot. ([2]; alcohol 2.5 g/kg/day p.o. 28 days, composition fixed by sample/example, listed as 3): 16.74%; TNF-α % Prot. ([2]; alcohol 2.5 g/kg/day p.o. 28 days, composition fixed by sample/example, listed as Example 3): 31.46%; GSH % Prot. ([2]; alcohol 2.5 g/kg/day p.o. 28 days, liver homogenate, composition fixed by sample/example, listed as 3): 20.06%; GSH % Prot. ([2]; alcohol 2.5 g/kg/day p.o. 28 days, liver homogenate, composition fixed by sample/example, listed as Example 3): 31.53%; MDA % Prot. ([2]; hepatic MDA, alcohol 2.5 g/kg/day p.o. 28 days, composition fixed by sample/example, listed as 3): 31.63%; MDA % Prot. ([2]; hepatic MDA, alcohol 2.5 g/kg/day p.o. 28 days, composition fixed by sample/example, listed as Example 3): 50.80%; SOD etc % Prot. ([2]; mean of SOD, CAT and GPx, alcohol 2.5 g/kg/day p.o. 28 days, composition fixed by sample/example, listed as 3): 19.32%; SOD etc % Prot. ([2]; mean of SOD, CAT and GPx, alcohol 2.5 g/kg/day p.o. 28 days, composition fixed by sample/example, listed as Example 3): 35.83%; ALT etc % Prot. ([2]; mean of serum ALT, AST and ALKP, alcohol 2.5 g/kg/day p.o. 28 days, composition fixed by sample/example, listed as 3): 70.37%; ALT etc % Prot. ([2]; mean of serum ALT, AST and ALKP, alcohol 2.5 g/kg/day p.o. 28 days, composition fixed by sample/example, listed as Example 3): 29.71%
8 | OC[C@H]1O[C@@H](O[C@H]2[C@H](O)[C@@H](O)C(O)O[C@@H]2CO)[C@H](O)[C@@H](O)[C@H]1O (stereo partly drawn) [Lac, Lactose] | 8.21 | 4.36 | 7.70 | 6.78 | 8.19 | 17.41 |  | 21.47 | 17.38 | 15.26 | 
9 | O=C[C@H](O)[C@@H](O)[C@H](O)CO [Xyls, Xylose] | 8.06 | 6.23 | 6.28 | 7.83 | 6.44 | 14.73 | 11.84 | 15.38 | 19.1 | 13.98 | 
10 | OC[C@H]1O[C@@](CO)(O[C@H]2O[C@H](CO)[C@@H](O)[C@H](O)[C@H]2O)[C@@H](O)[C@@H]1O [Suc, Sucrose] | 6.70 | 6 | 8.27 | 5.16 | 6.13 | 13.89 | 11.63 | 18.92 | 10.49 | 14.18 | 
